Assay results published in US20250032651A1, “[177LU] LUTETIUM-PSMA I&T COMPOSITION AND DOSIMETRY, KIT, METHOD OF MAKING, AND METHOD OF USING THEREOF” (Curium US LLC, priority 2022, published 2025).

Test: Cycle 3 dosimetry (TACs of cycle 1 scaled to cycle 3 time points)
Format: in vivo, human
Details: for Absorbed Dose in Cycle 3, Mean / Absorbed Dose in Cycle 3, max / Absorbed Dose in Cycle 3, min: N = 16
Method: (§1) To evaluate potential changes in the tracer's kinetics and uptake after multiple treatment cycles, 16 of the 27 patients included in the dosimetry sub study, were imaged at both cycle 1 and cycle 3. Among these, at cycle 3, three patients were imaged at all 4 timepoints and the other 13 were imaged at one or two timepoints only (24 h, 48 h or both 24 h and 48 h) (Table 2). For these 13 patients, the TACs obtained at cycle 1 were used for each source organ and scaled to the normalized activity value(s) measured at Cycle 3. For patients imaged at two timepoints, the TACs were preferably scaled using the average scaling factor between the two timepoints.
A subgroup of 16 out of the 27 patients underwent and additional dosimetry assessment at Cycle 3. Among these, three patients had dosimetry performed based on images taken at 4 timepoints, while the remaining patients had dosimetry performed at 1 or 2 imaging timepoints only.
as §1, with “7 in Appendix 1).” for “2).”

[1] = Lacrimal Glands (OLINDA sphere model)
[2] = Lacrimal Glands, OLINDA sphere model

For `O=C([O-])CC[C@H](NC(=O)N[C@@H](CCCCNC(=O)CCCCCCC(=O)NCCCC[C@@H](NC(=O)[C@@H](Cc1ccccc1)NC(=O)[C@@H](Cc1ccc(O)c(I)c1)NC(=O)CC[C@H](C(=O)[O-])N1CCN(CC(=O)[O-])CCN(CC(=O)[O-])CCN(CC(=O)[O-])CC1)C(=O)[O-])C(=O)[O-])C(=O)[O-].[177Lu+3].[H+].[H+].[H+].[H+].[H+]` [^177Lu-PSMA I&T, (3S,7S,26R,29R,32R,37R)-29-benzyl-32-(4-hydroxy-3-iodobenzyl)-5,13,20,28,31,34-hexaoxo-37-(4,7,10-tris(carboxymethyl)-1,4,7,10-tetraazacyclododecan-1-yl)-4,6,12,21,27,30,33-heptaazaheptatriacontane-1,3,7,26,37-pentacarboxylic acid; lutetium-177 (III)], the “Absorbed Dose in Cycle 3, Mean” value (Adrenals) was 0.02 Gy/GBq, the “Absorbed Dose in Cycle 3, max” value (Adrenals) was 0.03 Gy/GBq and the “Absorbed Dose in Cycle 3, min” value (Adrenals) was 0.01 Gy/GBq. For the same compound, the “Absorbed Dose in Cycle 3, Mean” value (Brain) was 0.01 Gy/GBq, the “Absorbed Dose in Cycle 3, max” value (Brain) was 0.02 Gy/GBq and the “Absorbed Dose in Cycle 3, min” value (Brain) was 0.00 Gy/GBq. The “absorbed radiation dose, kidneys (mean ± SD)” value (Cycle 3, 16 patients imaged at cycle 1 and 3) was 0.49±0.19 Gy/GBq, the “Absorbed Dose in Cycle 3, Mean” value (Esophagus) was 0.01 Gy/GBq and the “Absorbed Dose in Cycle 3, max” value (Esophagus) was 0.02 Gy/GBq. For the same compound, the “Absorbed Dose in Cycle 3, min” value (Esophagus) was 0.00 Gy/GBq, the “Absorbed Dose in Cycle 3, Mean” value (Eyes) was 0.01 Gy/GBq and the “Absorbed Dose in Cycle 3, max” value (Eyes) was 0.02 Gy/GBq. The “Absorbed Dose in Cycle 3, min” value (Eyes) was 0.00 Gy/GBq, the “Absorbed Dose in Cycle 3, Mean” value (Gallbladder wall) was 0.01 Gy/GBq and the “Absorbed Dose in Cycle 3, max” value (Gallbladder wall) was 0.02 Gy/GBq. The “Absorbed Dose in Cycle 3, min” value (Gallbladder wall) was 0.00 Gy/GBq, the “Absorbed Dose in Cycle 3, Mean” value (Heart wall) was 0.01 Gy/GBq and the “Absorbed Dose in Cycle 3, max” value (Heart wall) was 0.02 Gy/GBq. For the same compound, the “Absorbed Dose in Cycle 3, min” value (Heart wall) was 0.00 Gy/GBq, the “Absorbed Dose in Cycle 3, Mean” value (Kidneys) was 0.49 Gy/GBq and the “Absorbed Dose in Cycle 3, max” value (Kidneys) was 0.85 Gy/GBq. For the same compound, the “Absorbed Dose in Cycle 3, min” value (Kidneys) was 0.19 Gy/GBq, the “Absorbed Dose in Cycle 3, Mean” value [1] was 0.29 Gy/GBq and the “Absorbed Dose in Cycle 3, max” value [1] was 0.73 Gy/GBq. The “Absorbed Dose in Cycle 3, min” value [1] was 0.10 Gy/GBq, the “Absorbed Dose in Cycle 3, Mean” value [2] was 0.29 Gy/GBq and the “Absorbed Dose in Cycle 3, max” value [2] was 0.73 Gy/GBq. The “Absorbed Dose in Cycle 3, min” value [2] was 0.10 Gy/GBq, the “Absorbed Dose in Cycle 3, Mean” value (Left colon) was 0.41 Gy/GBq and the “Absorbed Dose in Cycle 3, max” value (Left colon) was 0.94 Gy/GBq. The “Absorbed Dose in Cycle 3, min” value (Left colon) was 0.07 Gy/GBq, the “Absorbed Dose in Cycle 3, Mean” value (Liver) was 0.06 Gy/GBq and the “Absorbed Dose in Cycle 3, max” value (Liver) was 0.15 Gy/GBq. For the same compound, the “Absorbed Dose in Cycle 3, min” value (Liver) was 0.00 Gy/GBq, the “Absorbed Dose in Cycle 3, Mean” value (Lungs) was 0.01 Gy/GBq and the “Absorbed Dose in Cycle 3, max” value (Lungs) was 0.02 Gy/GBq. The “Absorbed Dose in Cycle 3, min” value (Lungs) was 0.00 Gy/GBq, the “Absorbed Dose in Cycle 3, Mean” value (Osteogenic cells) was 0.02 Gy/GBq and the “Absorbed Dose in Cycle 3, max” value (Osteogenic cells) was 0.09 Gy/GBq. The “Absorbed Dose in Cycle 3, min” value (Osteogenic cells) was 0.00 Gy/GBq, the “Absorbed Dose in Cycle 3, Mean” value (Pancreas) was 0.01 Gy/GBq and the “Absorbed Dose in Cycle 3, max” value (Pancreas) was 0.02 Gy/GBq. The “Absorbed Dose in Cycle 3, min” value (Pancreas) was 0.00 Gy/GBq, the “Absorbed Dose in Cycle 3, Mean” value (Prostate) was 0.01 Gy/GBq and the “Absorbed Dose in Cycle 3, max” value (Prostate) was 0.02 Gy/GBq. For the same compound, the “Absorbed Dose in Cycle 3, min” value (Prostate) was 0.01 Gy/GBq, the “Absorbed Dose in Cycle 3, Mean” value (Rectum) was 0.39 Gy/GBq and the “Absorbed Dose in Cycle 3, max” value (Rectum) was 0.90 Gy/GBq. The “Absorbed Dose in Cycle 3, min” value (Rectum) was 0.06 Gy/GBq, the “Absorbed Dose in Cycle 3, Mean” value (Red Marrow) was 0.03 Gy/GBq and the “Absorbed Dose in Cycle 3, max” value (Red Marrow) was 0.17 Gy/GBq. The “Absorbed Dose in Cycle 3, min” value (Red Marrow) was 0.00 Gy/GBq, the “Absorbed Dose in Cycle 3, Mean” value (Right Colon) was 0.22 Gy/GBq and the “Absorbed Dose in Cycle 3, max” value (Right Colon) was 0.51 Gy/GBq. For the same compound, the “Absorbed Dose in Cycle 3, min” value (Right Colon) was 0.04 Gy/GBq, the “Absorbed Dose in Cycle 3, Mean” value (Salivary Glands) was 0.20 Gy/GBq and the “Absorbed Dose in Cycle 3, max” value (Salivary Glands) was 0.69 Gy/GBq. For the same compound, the “Absorbed Dose in Cycle 3, min” value (Salivary Glands) was 0.04 Gy/GBq, the “Absorbed Dose in Cycle 3, Mean” value (Small intestine) was 0.04 Gy/GBq and the “Absorbed Dose in Cycle 3, max” value (Small intestine) was 0.10 Gy/GBq. For the same compound, the “Absorbed Dose in Cycle 3, min” value (Small intestine) was 0.01 Gy/GBq, the “Absorbed Dose in Cycle 3, Mean” value (Spleen) was 0.03 Gy/GBq and the “Absorbed Dose in Cycle 3, max” value (Spleen) was 0.12 Gy/GBq. The “Absorbed Dose in Cycle 3, min” value (Spleen) was 0.01 Gy/GBq, the “Absorbed Dose in Cycle 3, Mean” value (Stomach Wall) was 0.01 Gy/GBq and the “Absorbed Dose in Cycle 3, max” value (Stomach Wall) was 0.02 Gy/GBq. For the same compound, the “Absorbed Dose in Cycle 3, min” value (Stomach Wall) was 0.00 Gy/GBq, the “Absorbed Dose in Cycle 3, Mean” value (Testes) was 0.01 Gy/GBq and the “Absorbed Dose in Cycle 3, max” value (Testes) was 0.02 Gy/GBq. For the same compound, the “Absorbed Dose in Cycle 3, min” value (Testes) was 0.00 Gy/GBq, the “Absorbed Dose in Cycle 3, Mean” value (Thymus) was 0.01 Gy/GBq and the “Absorbed Dose in Cycle 3, max” value (Thymus) was 0.02 Gy/GBq. For the same compound, the “Absorbed Dose in Cycle 3, min” value (Thymus) was 0.00 Gy/GBq, the “Absorbed Dose in Cycle 3, Mean” value (Thyroid) was 0.01 Gy/GBq and the “Absorbed Dose in Cycle 3, max” value (Thyroid) was 0.02 Gy/GBq. For the same compound, the “Absorbed Dose in Cycle 3, min” value (Thyroid) was 0.00 Gy/GBq, the “Absorbed Dose in Cycle 3, Mean” value (Total Body) was 0.02 Gy/GBq and the “Absorbed Dose in Cycle 3, max” value (Total Body) was 0.03 Gy/GBq. For the same compound, the “Absorbed Dose in Cycle 3, min” value (Total Body) was 0.01 Gy/GBq, the “Absorbed Dose in Cycle 3, Mean” value (Urinary Bladder wall) was 0.45 Gy/GBq and the “Absorbed Dose in Cycle 3, max” value (Urinary Bladder wall) was 0.70 Gy/GBq. For the same compound, the “Absorbed Dose in Cycle 3, min” value (Urinary Bladder wall) was 0.36 Gy/GBq.
